Structures can show the parent of a compound that is named as a salt.

This note sets out measurements from patent US6653313B2, “1,4-dihydropyridine compounds as bradykinin antagonists” (Warner-Lambert Company LLC, priority 2000, dated 2003).

For `COC(=O)C1=C(CCc2ccccc2COCCN2CCCC2)NC(CC(=O)N2CCN(C3CC4CCC(C3)N4C)CC2)=C(C(=O)OC)C1c1c(Cl)cccc1Cl.O=C(O)CCC(=O)O` (stereo not shown), the melting point was 168 °C (dec.).

With `COC(=O)C1=C(CCc2ccccc2NS(C)(=O)=O)NC(CC(=O)N2CCN(C3CC4CCC(C3)N4C)CC2)=C(C(=O)OC)C1c1c(Cl)cccc1Cl` (stereo not shown) (as salt: HCl), the melting point amounted to 143 °C.

As to `COC(=O)C1=C(CCc2ccccc2NS(=O)(=O)C(F)(F)F)NC(CC(=O)N2CCN(C3CC4CCC(C3)N4C)CC2)=C(C(=O)OC)C1c1c(Cl)cccc1Cl` (stereo not shown) (as salt: HCl), the melting point was 218 to 220 °C (dec.).

As for `COC(=O)C1=C(CCc2ccccc2C(=O)N2CCNCC2)NC(CC(=O)N2CCN(C3CC4CCC(C3)N4C)CC2)=C(C(=O)OC)C1c1c(Cl)cccc1Cl` (stereo not shown) (as salt: HCl), the melting point is 198 to 200 °C (dec.).

For the compound `CCN(CC)Cc1ccccc1CCC1=C(C(=O)OC)C(c2c(Cl)cccc2Cl)C(C(=O)OC)=C(CC(=O)N2CCN(C3CC4CCC(C3)N4C)CC2)N1` (stereo not shown) (as salt: HCl), the melting point is 77 to 79 °C (dec.).

Regarding `CNC(=O)CCC(=O)NCc1ccccc1CCC1=C(C(=O)OC)C(c2c(Cl)cccc2Cl)C(C(=O)OC)=C(CC(=O)N2CCN(C3CC4CCC(C3)N4C)CC2)N1` (stereo not shown) (as salt: citrate), the melting point is 158 to 160 °C (dec.).

`CCNCCOCc1ccccc1CCC1=C(C(=O)OC)C(c2c(Cl)cccc2Cl)C(C(=O)OC)=C(CC(=O)N2CCN(C34CCCC(CC3)N4C)CC2)N1` (stereo not shown) (as salt: citrate) displayed a melting point of 151 °C.

One may read the melting point as the temperature of the solid-liquid transition.
